According to patent publication US20080051429A1, “USE OF 4-AMINO-PIPERIDINES FOR TREATING SLEEP DISORDERS” (priority 2006, published 2008):

What was measured:
Experiment in all cases: R-SAT broad profiling
Type in all cases: cell-based
m3 = biological target: T1, m3 (Homo sapiens, UniProt P20309); settings: read-out: pEC50 or pIC50 (converted)
T1 construct: expressed in transfected cells; host or cells: NIH3T3
Method: (§1) The functional receptor assay, Receptor Selection and Amplification Technology (R-SAT), was used (with minor modifications from that previously described U.S. Pat. No. 5,707,798) to screen compounds for efficacy at the 5-HT2A receptor. Briefly, NIH3T3 cells were grown in 96 well tissue culture plates to 70-80% confluence. Cells were transfected for 12-16 hours with plasmid DNAs using superfect (Qiagen Inc.) as per manufacture's protocols. R-SAT's were generally performed with 50 ng/well of receptor and 20 ng/well of Beta-galactosidase plasmid DNA. All receptor and G-protein constructs used were in the pSI mammalian expression vector (Promega Inc) as described in U.S. Pat. No. 5,707,798. The 5HT2A receptor gene was amplified by nested PCR from brain cDNA using the oligodeoxynucleotides based on the published sequence (see Saltzman et. al. Biochem. Biophys. Res. Comm. 181:1469-78 (1991)). Large-scale transfections, cells were transfected for 12-16 hours, then trypsinized and frozen in DMSO. Frozen cells were later thawed, plated at 10,000-40,000 cells per well of a 96 well plate that contained drug. With both methods, cells were then grown in a humidified atmosphere with 5% ambient CO2 for five days. Media was then removed from the plates and marker gene activity was measured by the addition of the beta-galactosidase substrate ONPG (in PBS with 5% NP-40). The resulting colorimetric reaction was measured in a spectrophotometric plate reader (Titertek Inc.)at […]. All data were analyzed using the computer program XLFit (IDBSm). Efficacy is the percent maximal repression compared to repression by a control compound (ritanserin in the case of 5HT2A). pIC50 is the negative of the log(IC50), where IC50 is the calculated concentration in Molar that produces 50% maximal repression.
(§2) The R-SAT assay (described above in example 289) was used to investigate the selectivity of 4-(4-Fluoro-benzyl)-3-(4-isobutoxy-benzyl)-8-methyl-1-oxa-3,8-diaza-spiro[4.5]decan-2-one.

alpha 2A = biological target: T2, alpha 2A (Homo sapiens, UniProt P08913); settings: agonist; read-out: pEC50 or pIC50 (converted)
T2 construct: expressed in transfected cells; host or cells: NIH3T3
T2 sequence (P08913 1-465): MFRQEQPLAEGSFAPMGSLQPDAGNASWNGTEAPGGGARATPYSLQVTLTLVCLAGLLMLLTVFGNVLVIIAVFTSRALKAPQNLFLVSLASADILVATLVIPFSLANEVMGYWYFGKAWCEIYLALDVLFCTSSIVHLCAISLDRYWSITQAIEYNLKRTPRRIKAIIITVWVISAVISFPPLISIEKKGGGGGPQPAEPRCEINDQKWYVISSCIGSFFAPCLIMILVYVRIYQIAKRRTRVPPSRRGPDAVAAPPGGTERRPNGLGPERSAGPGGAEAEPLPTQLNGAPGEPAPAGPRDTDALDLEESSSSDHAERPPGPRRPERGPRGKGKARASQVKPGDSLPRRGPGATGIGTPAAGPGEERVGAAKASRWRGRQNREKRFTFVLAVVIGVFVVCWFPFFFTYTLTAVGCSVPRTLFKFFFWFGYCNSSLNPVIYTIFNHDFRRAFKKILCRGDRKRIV
Method: as §1, §2

D1 = biological target: T3, D1 (Homo sapiens, UniProt P21728); settings: read-out: pEC50 or pIC50 (converted)
T3 construct: expressed in transfected cells; host or cells: NIH3T3
Method: as §1, §2

T1 sequence (P20309 whole entry): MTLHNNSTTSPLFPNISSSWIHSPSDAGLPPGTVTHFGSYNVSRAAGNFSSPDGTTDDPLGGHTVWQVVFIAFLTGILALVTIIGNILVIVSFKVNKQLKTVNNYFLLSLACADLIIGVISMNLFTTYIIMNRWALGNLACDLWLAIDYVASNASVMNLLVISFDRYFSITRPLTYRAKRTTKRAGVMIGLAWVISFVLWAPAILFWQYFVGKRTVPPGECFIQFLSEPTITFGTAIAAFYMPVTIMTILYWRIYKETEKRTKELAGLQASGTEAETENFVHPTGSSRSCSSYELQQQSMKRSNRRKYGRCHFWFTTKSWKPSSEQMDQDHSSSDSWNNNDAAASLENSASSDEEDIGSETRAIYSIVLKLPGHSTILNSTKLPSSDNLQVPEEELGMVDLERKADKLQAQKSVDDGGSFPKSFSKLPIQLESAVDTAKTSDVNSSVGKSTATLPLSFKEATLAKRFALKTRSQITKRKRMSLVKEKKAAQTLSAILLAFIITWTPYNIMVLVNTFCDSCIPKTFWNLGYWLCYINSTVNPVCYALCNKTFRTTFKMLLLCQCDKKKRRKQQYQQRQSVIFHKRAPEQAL
T3 sequence (P21728 whole entry): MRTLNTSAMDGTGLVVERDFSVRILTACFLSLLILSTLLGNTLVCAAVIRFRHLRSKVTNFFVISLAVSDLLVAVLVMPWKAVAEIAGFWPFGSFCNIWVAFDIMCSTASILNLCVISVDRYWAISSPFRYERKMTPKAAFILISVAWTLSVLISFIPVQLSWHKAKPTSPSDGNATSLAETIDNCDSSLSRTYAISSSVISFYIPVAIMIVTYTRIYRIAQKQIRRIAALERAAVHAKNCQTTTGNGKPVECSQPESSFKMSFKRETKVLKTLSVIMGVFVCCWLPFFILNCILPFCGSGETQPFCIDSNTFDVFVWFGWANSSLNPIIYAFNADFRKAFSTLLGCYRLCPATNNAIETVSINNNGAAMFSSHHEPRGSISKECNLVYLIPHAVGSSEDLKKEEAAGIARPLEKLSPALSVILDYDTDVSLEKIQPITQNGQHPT

CC(C)COc1ccc(CN2C(=O)OC3(CCN(C)CC3)C2Cc2ccc(F)cc2)cc1.Cl (racemic) [Example 69NLS75, 4-(4-Fluorobenzyl)-3-(4-isobutoxybenzyl)-8-methyl-1-oxa-3,8-diazaspiro[4.5]decan-2-one, hydrochloride]
> 3.16 µM: EC50 (m3; agonist) | IC50 (m3; inverse) | EC50 (alpha 2A) | EC50 (D1; agonist) | IC50 (D1; antagonist)
